Values joined by “and” are separate entries in the source; they are usually repeats but may differ in a detail not shown here. Equal entries are not always repeated. Where two headings read alike, the source gives them in different places.
What was measured:
[1] = system: PC-9 (KRAS wild type human lung adenocarcinoma cell line); experiment: KRAS 3D-Cell Proliferation Assay, PC-9 (CellTiter-Glo 3D, 7 days); format: cell-based; settings: PC-9 3D culture, read-out: Prolif PC9 3D ATP IC50
Procedure: (§1) Example 503: KRAS 3D-Cell Proliferation Assays. Cellular potencies of compounds are assessed by evaluating inhibition of proliferation in 3D cultures of homozygous mutant KRAS G12D human pancreatic cell lines (AsPC-1 and HPAC) as compared to a KRAS wild type human lung adenocarcinoma cell line (PC-9 and/or H1975). Cells are seeded into 384-well black round-bottom, ultra-low attachment assay plates in 50 uL cell growth medium (RPMI-1640 with 10% fetal bovine serum and 2 mM L-glutamine). After overnight incubation at 37° C. and 5% CO2, compounds solubilized in DMSO are added as dilution series to the wells in a total volume of 150 nL (0.3% DMSO final). The cells are incubated for 7 days at 37° C. and 5% CO2. Cell proliferation is quantitated by addition of 40 uL/well of CellTiter-GloO 3D (Promega), and the well contents are mixed 20× at high speed using liquid handling automation workstation (Bravo with 384-well head) and centrifuged at 1500 rpm for 2 minutes to eliminate bubbles. This reagent in combination with mechanical disruption releases the cellular ATP to promote activity in a luciferase-based enzyme/substrate chemiluminescent detection system. After a 30-minute incubation under ambient conditions with shaking and an additional 10 minutes without shaking, the luminescence is read on a plate reader (e.g. EnVision [PerkinElmer]). The results are normalized to percent inhibition based on the following control samples: DMSO (0% inhibition) and 1 uM staurosporine (100% inhibition). The normalized luminescence results are plotted against compound concentration, and the data are fit to a 4-parameter Hill equation to determine the IC50 values.

KRAS WT [2] = target: T1, KRAS WT (Homo sapiens (Human), UniProt P01116); experiment: KRAS WT Biochemical Assay, BODIPY-GDP Exchange TR-FRET (Example 501; 3 nM KRAS WT, 3 nM SOS1, 60-minute incubation)
How it was run: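 SOS1-mediated exchange assay: 3 nM biotin-KRAS WT with terbium-streptavidin, started with 3 nM SOS1 and 300 nM BODIPY-GDP, HEPES pH 7.5 with MgCl2. TR-FRET (520/490 nm) read after 60 min; normalized to DMSO and full-inhibition control, IC50 from 4-parameter Hill fit.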

KRAS G12D = KRAS G12D (Homo sapiens (Human), UniProt P01116, G12D); experiment: KRAS G12D LoEnz Biochemical Assay, BODIPY-GDP Exchange TR-FRET (SOS1-mediated nucleotide exchange); settings: read-out: KRas (G12D) GDP HTRF IC50
KRAS WT [3] = target: T1, KRAS WT; experiment: KRAS WT Biochemical Assay, BODIPY-GDP Exchange TR-FRET (Example 502; 0.06 nM KRAS WT, 15 nM GDP, 300 nM SOS1, 120-minute incubation); settings: read-out: KRas HTRF IC50
How it was run: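 Biotin-tagged recombinant KRAS WT (0.06 nM) preloaded with 15 nM GDP and Tb-streptavidin, 10 min RT, then exchange started with 300 nM SOS1 plus 300 nM BODIPY-GDP in HEPES pH 7.5 buffer with MgCl2. TR-FRET 520/490 ratio read after 120 min; normalized to DMSO and full-inhibition control; IC50 from 4-parameter fit.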

[4] = system: H1975 (KRAS wild type human lung adenocarcinoma cell line); experiment: KRAS 3D-Cell Proliferation Assay, H1975 (CellTiter-Glo 3D, 7 days); format: cell-based; settings: H1975 3D culture, read-out: Prolif H1975 3D ATP IC50
Procedure: as §1

[5] = system: HPAC (homozygous mutant KRAS G12D human pancreatic cell line); experiment: KRAS 3D-Cell Proliferation Assay, HPAC (CellTiter-Glo 3D, 7 days); format: cell-based; settings: Homo sapiens, HPAC, 168 h, HPAC 3D culture, read-out: Prolif HPAC 3D ATP IC50
Procedure: as §1

[6] = read-out: KRas(wt) GDP HTRF IC50

Sequence of KRAS G12D (P01116-2 other isoform, or with tags, fused parts or gaps G12D): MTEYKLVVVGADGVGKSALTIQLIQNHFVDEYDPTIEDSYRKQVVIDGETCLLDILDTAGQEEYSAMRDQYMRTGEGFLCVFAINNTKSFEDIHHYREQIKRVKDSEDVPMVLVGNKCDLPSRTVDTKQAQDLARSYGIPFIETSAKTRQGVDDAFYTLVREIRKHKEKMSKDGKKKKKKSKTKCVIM
T1 sequence (P01116-2 other isoform, or with tags, fused parts or gaps): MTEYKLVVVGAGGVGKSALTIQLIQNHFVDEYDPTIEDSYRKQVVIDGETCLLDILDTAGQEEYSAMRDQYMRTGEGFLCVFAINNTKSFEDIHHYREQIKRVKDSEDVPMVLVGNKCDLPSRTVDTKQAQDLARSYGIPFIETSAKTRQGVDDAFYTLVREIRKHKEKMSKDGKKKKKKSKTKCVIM

Compound | IC50 (KRAS WT [2]; [6]) | IC50 ([1]; Homo sapiens, PC-9, 168 h) | IC50 (KRAS G12D) | IC50 (KRAS WT [3]) | other results
C[C@@H]1Oc2nc(-c3cccc4cccc(Cl)c34)c(F)c3nc(OCC45CCN4CC(F)(F)C5)nc(c23)N2C[C@H]3CC[C@H](N3)[C@@H]12 (single isomer, unassigned) [Compound 21] | 3890 nM and 1400 nM | – | – | – | IC50 [1]: 8130 nM
Cc1cc(N)nc(-c2nc3c4c(nc(OC[C@]56CCN5CC(F)(F)C6)nc4c2F)N2C[C@H]4CC[C@H](N4)[C@H]2[C@H](C)O3)c1C(F)(F)F (single isomer, unassigned) [Compound 45] | 69.4 nM and 319 nM | 20000 nM | – | – | –
C#Cc1c(F)ccc2cccc(-c3nc4c5c(ncnc5c3F)N3C[C@H]5CC[C@H](N5)[C@H]3[C@H](C)O4)c12 [Compound 56, (5S,5aS,6S,9R)-2-(8-ethynyl-7-fluoronaphthalen-1-yl)-1-fluoro-5-methyl-5a,6,7,8,9,10-hexahydro-5H-4-oxa-3,10a,11,13,14-pentaaza-6,9-methanonaphtho[1,8-ab]heptalene] | 46500 nM | 20000 nM | 942 nM | – | –
C[C@@H]1Oc2nc(-c3nc(N)ccc3C(F)(F)F)c(F)c3nc(OC[C@@]45CCCN4C[C@H](F)C5)nc(c23)N2C[C@H]3CC[C@H](N3)[C@@H]12 [Compound 85, 6-((5S,5aS,6S,9R)-1-fluoro-12-(((2R,7aS)-2-fluorotetrahydro-1H-pyrrolizin-7a(5H)-yl)methoxy)-5-methyl-5a,6,7,8,9,10-hexahydro-5H-4-oxa-3,10a-11,13,14-pentaaza-6,9-methanonaphtho[1,8-ab]heptalen-2-yl)-5-(trifluoromethyl)pyridin-2-amine] | – | 20000 nM | 3.28 nM | 678 nM | –
C#Cc1cccc2cncc(-c3nc4c5c(nc(OC[C@@]67CCCN6C[C@H](F)C7)nc5c3F)N3C[C@H]5CC[C@H](N5)[C@H]3[C@H](C)O4)c12 [Compound 39, (5S,5aS,6S,9R)-2-(5-Ethynylisoquinolin-4-yl)-1-fluoro-12-(((2R,7aS)-2-fluorotetrahydro-1H-pyrrolizin-7a(5H)-yl)methoxy)-5-methyl-5a,6,7,8,9,10-hexahydro-5H-4-oxa-3,10a,11,13,14-pentaaza-6,9-methanonaphtho[1,8-ab]heptalene] | 76.1 nM | 20000 nM | 1.78 nM | – | –
C#Cc1c(F)ccc2cc(O)cc(-c3nc4c5c(nc(OC[C@@]67CCCN6C[C@H](F)C7)nc5c3F)N3C[C@H]5CC[C@H](N5)[C@H]3CO4)c12 [Compound 81, 5-Ethynyl-6-fluoro-4-((5aS,6S,9R)-1-fluoro-12-(((2R,7aS)-2-fluorotetrahydro-1H-pyrrolizin-7a(5H)-yl)methoxy)-5a,6,7,8,9,10-hexahydro-5H-4-oxa-3,10a,11,13,14-pentaaza-6,9-methanonaphtho[1,8-ab]heptalen-2-yl)naphthalen-2-ol] | – | 20000 nM | 0.085 nM | 0.448 nM | –
C[C@@H]1Oc2nc(-c3nc(N)cc4ccccc34)c(F)c3nc(OC[C@@]45CCCN4C[C@H](F)C5)nc(c23)N2C[C@H]3CC[C@H](N3)[C@@H]12 [Compound 41, 1-((5S,5aS,6S,9R)-1-fluoro-12-(((2R,7aS)-2-fluorotetrahydro-1H-pyrrolizin-7a(5H)-yl)methoxy)-5-methyl-5a,6,7,8,9,10-hexahydro-5H-4-oxa-3,10a,11,13,14-pentaaza-6,9-methanonaphtho[1,8-ab]heptalen-2-yl)isoquinolin-3-amine] | 296 nM | 20000 nM | 6.35 nM | – | –
Cc1cc(N)nc(-c2nc3c4c(nc(OC[C@@]56CCCN5C[C@H](F)C6)nc4c2F)N2C[C@H]4CC[C@H](N4)[C@H]2CO3)c1C(F)(F)F [Compound 44, 6-((5aS,6S,9R)-1-fluoro-12-(((2R,7aS)-2-fluorotetrahydro-1H-pyrrolizin-7a(5H)-yl)methoxy)-5a,6,7,8,9,10-hexahydro-5H-4-oxa-3,10a,11,13,14-pentaaza-6,9-methanonaphtho[1,8-ab]heptalen-2-yl)-4-methyl-5-(trifluoromethyl)pyridin-2-amine] | 59 nM | 20000 nM | 0.68 nM | – | –
C#Cc1cccc2cc(O)cc(-c3nc4c5c(ncnc5c3F)N3C[C@H]5CC[C@H](N5)[C@H]3[C@H](C)O4)c12 [Compound 54, 5-ethynyl-4-((5S,5aS,6S,9R)-1-fluoro-5-methyl-5a,6,7,8,9,10-hexahydro-5H-4-oxa-3,10a,11,13,14-pentaaza-6,9-methanonaphtho[1,8-ab]heptalen-2-yl)naphthalen-2-ol] | 1980 nM | 20000 nM | 17.8 nM | – | –
C#Cc1c(F)ccc2cccc(-c3nc4c5c(nc(OCC67CCN6CC(F)(F)C7)nc5c3F)N3C[C@H]5CC[C@H](N5)[C@H]3[C@H](C)O4)c12 (stereo partly drawn) [Compound 22, (5S,5aS,6S,9R)-12-((3,3-difluoro-1-azabicyclo[3.2.0]heptan-5-yl)methoxy)-2-(8-ethynyl-7-fluoronaphthalen-1-yl)-1-fluoro-5-methyl-5a,6,7,8,9,10-hexahydro-5H-4-oxa-3,10a,11,13,14-pentaaza-6,9-methanonaphtho[1,8-ab]heptane] | – | – | – | – | IC50 [1]: 7410 nM; IC50 (KRAS WT [2]; read-out: KRas HTRF IC50): 9.95 nM
Cc1cc(N)nc(-c2nc3c4c(nc(OC[C@@]56CCCN5C[C@H](F)C6)nc4c2F)N2C[C@H]4CC[C@H](N4)[C@H]2[C@H](C)O3)c1C(F)(F)F [Compound 43, 6-((5S,5aS,6S,9R)-1-Fluoro-12-(((2R,7aS)-2-fluorotetrahydro-1H-pyrrolizin-7a(5H)-yl)methoxy)-5-methyl-5a,6,7,8,9,10-hexahydro-5H-4-oxa-3,10a,11,13,14-pentaaza-6,9-methanonaphtho[1,8-ab]heptalen-2-yl)-4-methyl-5-(trifluoromethyl)pyridin-2-amine] | 16.6 nM | 20000 nM | 0.598 nM | – | –
Cc1c(F)c(N)cc(-c2nc3c4c(nc(OC[C@]5(CN6C[C@H]7C[C@@H]6CO7)CC5(F)F)nc4c2F)N2C[C@H]4CC[C@H](N4)[C@H]2[C@H](C)O3)c1C(F)(F)F (single isomer, unassigned) [166 a] | – | – | 0.1 nM | 3.68 nM | IC50 [4]: 1270 nM; IC50 [5]: 1.44 nM
Cc1c(F)c(N)cc(-c2nc3c4c(nc(OCC56CCCN5CC(F)C6F)nc4c2F)N2C[C@H]4CC[C@H](N4)[C@H]2[C@H](C)O3)c1C(F)(F)F (single isomer, unassigned) [143 (isomer 2)] | – | – | 0.26 nM | 33.5 nM | IC50 ([4]; Homo sapiens, NCI-H1975, 168 h): 1130 nM; IC50 [5]: 3.52 nM
C#Cc1cccc2cc(O)cc(-c3nc4c5c(nc(OC[C@@]67CCCN6C[C@H](F)C7)nc5c3F)N3C[C@H]5CC[C@H](N5)[C@H]3[C@H](C)O4)c12 [Compound 11, 5-ethynyl-4-((5S,5aS,6S,9R)-1-fluoro-12-(((2R,7aS)-2-fluorotetrahydro-1H-pyrrolizin-7a(5H)-yl)methoxy)-5-methyl-5a,6,7,8,9,10-hexahydro-5H-4-oxa-3,10a,11,13,14-pentaaza-6,9-methanonaphtho[1,8-ab]heptalen-2-yl)naphthalen-2-ol] | 0.38 nM | 20000 nM | 0.06 nM | – | –
Cc1c(F)c(N)cc(-c2nc3c4c(nc(OC[C@@H]5COC[C@H]6CCCN65)nc4c2F)N2C[C@H]4CC[C@H](N4)[C@H]2[C@H](C)O3)c1C(F)(F)F (single isomer, unassigned) [121 (isomer 2)] | – | – | 0.27 nM | 49.3 nM | IC50 ([4]; Homo sapiens, NCI-H1975, 168 h): 533 nM; IC50 [5]: 17.5 nM
Cc1c(F)c(N)cc(-c2nc3c4c(nc(OC[C@@]56CCC[C@H]5N(C)CCC6)nc4c2F)N2C[C@H]4CC[C@H](N4)[C@H]2[C@H](C)O3)c1C(F)(F)F (single isomer, unassigned) [126 (isomer 3)] | – | – | 0.09 nM | 6.31 nM | IC50 ([4]; Homo sapiens, NCI-H1975, 168 h): 1430 nM; IC50 [5]: 3.28 nM

— patent US20240025919A1, “AZA-TETRACYCLIC OXAZEPINE COMPOUNDS AND USES THEREOF” (Genentech, Inc., priority 2022, published 2024)
